The text below walks through data of PubChem BioAssay (NCI).

Some test systems named below: HCC-2998 colon; NCI-H522 lung; K-562 leukemia; M14 melanoma; SR leukemia; SK-MEL-5 melanoma; SK-OV-3 ovarian; HCT-116 colon; OVCAR-5 ovarian; HL-60(TB) leukemia.
What all share (assay): NCI tumour cell line growth inhibition, 48 h

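Step 1: Grow cells in 96-well plates. Step 2: Expose to compound for 48 hours at 5 concentrations. Step 3: Interpolate endpoints linearly; if unreached, use highest concentration. GI50 is the concentration that inhibits growth by half. At the TGI there is no net growth.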

`CCN(CC)c1ccc(/C=N/NC(=O)CSc2nc3ccccc3c(=O)n2Cc2ccc(S(N)(=O)=O)cc2)c(O)c1`: the GI50 was 0.882 µM in the experiment on HCC-2998 colon; 2.4 µM with NCI-H522 lung; 0.592 µM with K-562 leukemia; 0.452 µM in the experiment on M14 melanoma; 0.212 µM in the experiment on SR leukemia; 1.57 µM in the experiment on SK-MEL-5 melanoma. Moreover, the GI50 in the experiment with SK-OV-3 ovarian is 1.32 µM; in the experiment on HCT-116 colon it was 0.363 µM; in the experiment on OVCAR-5 ovarian, 2.09 µM; with HL-60(TB) leukemia it was 0.412 µM. Further, the TGI with HCC-2998 colon was over 100 µM; in the experiment with NCI-H522 lung, over 100 µM; in the experiment on K-562 leukemia, over 100 µM; in the experiment on M14 melanoma, 10.9 µM; with SR leukemia, over 100 µM; in the experiment on SK-MEL-5 melanoma it was 4.97 µM. Further, the TGI with SK-OV-3 ovarian was over 100 µM; in the experiment with HCT-116 colon, over 100 µM; with OVCAR-5 ovarian, over 100 µM; in the experiment with HL-60(TB) leukemia it was 5.38 µM.

For the compound `NCCOc1ncccc1/C=C1\c2ccccc2-c2ccc([N+](=O)[O-])cc21`, the GI50 with HCC-2998 colon is 0.137 µM; with NCI-H522 lung it was 0.0684 µM; in the experiment with K-562 leukemia it was 0.0337 µM; with M14 melanoma it was 0.0439 µM; in the experiment with SR leukemia it was under 0.01 µM; in the experiment on SK-MEL-5 melanoma, 0.101 µM. The GI50 in the experiment with SK-OV-3 ovarian is 0.0489 µM; in the experiment on HCT-116 colon, 0.0455 µM; with OVCAR-5 ovarian, 0.211 µM; in the experiment on HL-60(TB) leukemia it was 0.0165 µM. For the same compound, the TGI in the experiment with HCC-2998 colon was found to be 0.322 µM; with NCI-H522 lung, 0.438 µM; in the experiment with K-562 leukemia it was 1.23 µM; in the experiment on M14 melanoma, 0.322 µM; in the experiment with SR leukemia it was 1.1 µM; with SK-MEL-5 melanoma, 0.253 µM. The TGI stood at 0.309 µM in the experiment on SK-OV-3 ovarian, 0.237 µM in the experiment with HCT-116 colon, 0.68 µM in the experiment on OVCAR-5 ovarian and 0.121 µM with HL-60(TB) leukemia.

Take `NC(CSC(c1ccccc1)(c1ccccc1)c1ccc(F)cc1)C(=O)O` (centres undefined): the GI50 in the experiment on HCC-2998 colon was 0.438 µM; with NCI-H522 lung it was 0.3 µM; in the experiment with K-562 leukemia, 0.356 µM; in the experiment with M14 melanoma, 0.402 µM; in the experiment on SR leukemia it was 0.253 µM; with SK-MEL-5 melanoma it was 0.382 µM. Also, the GI50 in the experiment with SK-OV-3 ovarian was 0.348 µM; with HCT-116 colon, 0.381 µM; with OVCAR-5 ovarian it was 4.18 µM; in the experiment on HL-60(TB) leukemia it was 0.268 µM. In addition, the TGI with HCC-2998 colon is 11.5 µM; with NCI-H522 lung, 0.704 µM; in the experiment on M14 melanoma, over 100 µM; with SR leukemia it was 2.93 µM; in the experiment on SK-MEL-5 melanoma, over 70.9 µM; with SK-OV-3 ovarian, 24.1 µM. In addition, the TGI in the experiment on HCT-116 colon is over 34.6 µM; in the experiment on OVCAR-5 ovarian, over 76.5 µM; with HL-60(TB) leukemia, 2.47 µM.

Turning to `COc1ccc2[nH]c(C(=O)OCc3ccc4cccc(O)c4n3)cc2c1`, the GI50 with HCC-2998 colon is 1.43 µM; in the experiment with NCI-H522 lung, 1.39 µM; in the experiment with K-562 leukemia it was 0.283 µM; with M14 melanoma it was 0.564 µM; in the experiment with SR leukemia, 0.251 µM; in the experiment on SK-MEL-5 melanoma, 1.76 µM. Also, the GI50 in the experiment with SK-OV-3 ovarian is 11.1 µM; with HCT-116 colon, 0.39 µM; in the experiment on OVCAR-5 ovarian it was 1.45 µM; in the experiment with HL-60(TB) leukemia, 1.18 µM. In addition, the TGI with HCC-2998 colon stood at 2.92 µM; in the experiment on NCI-H522 lung, 3.25 µM; in the experiment on K-562 leukemia, 2.66 µM; with M14 melanoma, 2.04 µM; with SR leukemia, 1.25 µM; with SK-MEL-5 melanoma, 3.18 µM. In addition, the TGI in the experiment on SK-OV-3 ovarian is 23.2 µM; in the experiment with HCT-116 colon, 1.85 µM; in the experiment with OVCAR-5 ovarian, 2.96 µM; in the experiment on HL-60(TB) leukemia it was 3.4 µM.
